Test results from patent US9790235B2, “MK2 inhibitors and uses thereof” (Celgene CAR LLC, priority 2014, dated 2017).
Where two headings read alike, the source gives them in different places.

Assays:
[1] = biological target: p38α activated, mitogen-activated protein kinase-activated protein kinase 2 (MAPKAP-K2 or MK2) enzyme (Homo sapiens (Human), UniProt P49137); assay: MK2 Omnia continuous-read kinase assay for compound potency; assay type: biochemical
How it was run: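 Continuous fluorescence read (λex360/λem485) with 0.4 nM p38α-activated MK2, 10 μM ATP (apparent KM) and 10 μM S/T3-Sox peptide, monitored over 120 min at room temperature. Background-corrected initial slopes gave % inhibition and IC50 with Hill slope; exponential fits gave kobs, yielding apparent kinact/KI.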

MK2 [2] = biological target: T1, MK2 (Homo sapiens (Human), UniProt P49137); assay: MK2 cellular assay, total and phospho-Hsp27 (Serine 78) by MSD ELISA (Thp1); assay type: cell-based
T1 sequence (P49137 whole entry): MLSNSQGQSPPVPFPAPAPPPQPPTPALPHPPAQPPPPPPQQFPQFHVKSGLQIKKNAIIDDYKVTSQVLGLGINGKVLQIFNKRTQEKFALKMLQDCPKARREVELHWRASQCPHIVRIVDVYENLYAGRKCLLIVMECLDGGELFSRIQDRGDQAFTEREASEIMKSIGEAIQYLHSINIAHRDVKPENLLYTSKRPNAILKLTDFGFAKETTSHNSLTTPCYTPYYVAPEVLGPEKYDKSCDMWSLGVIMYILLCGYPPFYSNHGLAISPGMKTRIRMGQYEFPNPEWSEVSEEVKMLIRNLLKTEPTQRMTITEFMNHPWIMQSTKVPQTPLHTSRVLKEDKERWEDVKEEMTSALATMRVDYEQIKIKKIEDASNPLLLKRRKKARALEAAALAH
How it was run: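 PMA-differentiated (10 ng/mL, 72 h) Thp-1 cells were pretreated with compound (top 3000 nM) for 1 h at 37 °C, then stimulated with 50 ng/mL LPS for 45 min. Lysate phospho-Hsp27 (Ser78) and total Hsp27 were read by MSD electrochemiluminescence ELISA, and the value is expressed as percent phospho/total signal per well.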

MK2 [3] = biological target: T1, MK2; details: percentage of modified protein after 60 minutes at room temperature, 10-fold excess of compound; MALDI (I-1 to I-50), magnetic bead MALDI (I-51 to I-129)
[4] = [MK-2]=0.4 nM, [ATP]=10 μM, [ST3-Sox]=10 μM, read-out: MK2 IC50
[5] = Thp-1 cells, 1 hour compound, 50 ng/mL LPS 45 minutes, p-HSP27 (Ser78)/total HSP27, read-out: pHSP27 signaling EC50
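Wherever Mass Modification is given: covalent binding read from centroid mass shift of compound-treated versus untreated intact MK2, shift divided by compound molecular weight, giving fraction of total protein bound.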

p38α activated, mitogen-activated protein kinase-activated protein kinase 2 (MAPKAP-K2 or MK2) enzyme, sequence (P49137 whole entry): as above

Structure (SMILES)	IC50 [1, 4] [nM]	EC50 (MK2 [2]; [5]) [nM]	Mass Modification (MK2 [3])	IC50 [1] [nM]	EC50 (MK2 [2]) [nM]
C[C@@H]1CNc2c(sc3ccc4nc(Oc5nc(Cl)ncc5CS(C)(=O)=O)ccc4c23)C(=O)N1 [I-112, (R)-3-((2-chloro-5-((methylsulfonyl)methyl)pyrimidin-4-yl)oxy)-10-methyl-9,10,11,12-tetrahydro-8H-[1,4]diazepino[5′,6′:4,5]thieno[3,2-f]quinolin-8-one]	< 100	101 to 500	E (mass modification of ≧70%)	–	–
C[C@@H]1CNc2c(sc3ccc4nc(Oc5cc(Cl)ncn5)ccc4c23)C(=O)N1 [I-56, (R)-3-((6-chloropyrimidin-4-yl)oxy)-10-methyl-9,0,11,12-tetrahydro-8H-[1,4]diazepino[5′,6′:4,5]thieno[3,2-f]quinolin-8-one]	< 100	< 100	E (mass modification of ≧70%)	–	–
C[C@@H]1CNc2c(sc3ccc4nc(Sc5cc(F)ncn5)ccc4c23)C(=O)N1 [I-54, (R)-3-((6-fluoropyrimidin-4-yl)thio)-10-methyl-9,10,11,12-tetrahydro-8H-[1,4]diazepino[5′,6′:4,5]thieno[3,2-f]quinolin-8-one]	< 100	> 1000	E (mass modification of ≧70%)	–	–
C[C@@H]1CNc2c(sc3ccc4nc(Nc5nc(Cl)ncc5C(N)=O)ccc4c23)C(=O)N1 [I-9, (R)-2-chloro-4-((10-methyl-8-oxo-9,10,11,12-tetrahydro-8H-[1,4]diazepino[5′,6′:4,5]thieno[3,2-f]quinolin-3-yl)amino)pyrimidine-5-carboxamide]	< 100	< 100	E (mass modification of ≧70%)	–	–
C[C@@H]1CNc2c(sc3ccc4nc(Oc5cc(Cl)nc(CO)n5)ccc4c23)C(=O)N1 [I-68, (R)-3-((6-chloro-2-(hydroxymethyl)pyrimidin-4-yl)oxy)-10-methyl-9,10,12-tetrahydro-8H-[1,4]diazepino[5′,6′:4,5]thieno[3,2-f]quinolin-8-one]	< 100	< 100	E (mass modification of ≧70%)	–	–
C[C@@H]1CNc2c(sc3ccc4nc(Nc5cc(F)ncc5C#N)ccc4c23)C(=O)N1 [I-27, (R)-6-fluoro-4-((10-methyl-8-oxo-9,10,11,12-tetrahydro-8H-[1,4]diazepino[5′,6′:4,5]thieno[3,2-f]quinolin-3-yl)amino)nicotinonitrile]	< 100	< 100	G (mass modification ≦30%)	–	–
C[C@@H]1CNc2c(sc3ccc4nc(Oc5cnnc(Cl)c5)ccc4c23)C(=O)N1 [I-79, (R)-3-((6-chloropyridazin-4-yl)oxy)-10-methyl-9,10,11,12-tetrahydro-8H-[1,4]diazepino[5′,6′:4,5]thieno[3,2-f]quinolin-8-one]	< 100	101 to 500	E (mass modification of ≧70%)	–	–
C[C@@H]1CNc2c(sc3ccc4nc(Oc5nc(Cl)ncc5CN5CC6CC(C6)C5)ccc4c23)C(=O)N1 [I-85, (R)-3-((5-((3-azabicyclo[3.1.1]heptan-3-yl)methyl)-2-chloropyrimidin-4-yl)oxy)-10-methyl-9,10,11,12-tetrahydro-8H-[1,4]diazepino[5′,6′:4,5]thieno[3,2-f]quinolin-8-one]	–	–	E (mass modification of ≧70%)	101 to 500	< 100
C[C@@H]1CNc2c(sc3ccc4nc(N(C)c5nc(Cl)ncc5C(N)=O)ccc4c23)C(=O)N1 [I-34, (R)-2-chloro-4-(methyl(10-methyl-8-oxo-9,10,11,12-tetrahydro-8H-[1,4]diazepino[5′,6′:4,5]thieno[3,2-f]quinolin-3-yl)amino)pyrimidine-5-carboxamide]	501 to 999	> 1000	G (mass modification ≦30%)	–	–
COCCOc1nc(Cl)cc(Nc2ccc3c(ccc4sc5c(c43)NC[C@@H](C)NC5=O)n2)n1 [I-67, (R)-3-((6-chloro-2-(2-methoxyethoxy)pyrimidin-4-yl)amino)-10-methyl-9,10,11,12-tetrahydro-8H-[1,4]diazepino[5′,6′:4,5]thieno[3,2-f]quinolin-8-one]	< 100	101 to 500	F (mass modification of 31-69%)	–	–
NC[C@@H]1CNc2c(sc3ccc4nc(Nc5cc(F)ncn5)ccc4c23)C(=O)N1 [I-26, (R)-10-(aminomethyl)-3-((6-fluoropyrimidin-4-yl)amino)-9,10,11,12-tetrahydro-8H-[1,4]diazepino[5′,6′:4,5]thieno[3,2-f]quinolin-8-one]	< 100	> 1000	E (mass modification of ≧70%)	–	–
C[C@@H]1CNc2c(sc3ccc4nc(Nc5cc(Cl)nc(O[C@@H]6CCN(C)C6)n5)ccc4c23)C(=O)N1 [I-60, (R)-3-((6-chloro-2-(((R)-1-methylpyrrolidin-3-yl)oxy)pyrimidin-4-yl)amino)-10-methyl-9,10,11,12-tetrahydro-H-[1,4]diazepino[5′,6′:4,5]thieno[3,2-f]quinolin-8-one]	< 100	101 to 500	F (mass modification of 31-69%)	–	–
COCCOc1cc(F)nc(Nc2ccc3c(ccc4sc5c(c43)NC[C@@H](C)NC5=O)n2)n1 [I-45, (R)-3-((4-fluoro-6-(2-methoxyethoxy)pyrimidin-2-yl)amino)-10-methyl-9,10,11,12-tetrahydro-8H-[1,4]diazepino[5′,6′:4,5]thieno[3,2-f]quinolin-8-one]	< 100	–	G (mass modification ≦30%)	–	> 1000
C[C@@H]1CNc2c(sc3ccc4nc(Oc5nc(Cl)ncc5CN5CCCC(C)(C)C5)ccc4c23)C(=O)N1 [I-95, (R)-3-((2-chloro-5-((3,3-dimethylpiperidin-1-yl)methyl)pyrimidin-4-yl)oxy)-10-methyl-9,10,11,12-tetrahydro-8H-[1,4]diazepino[5′,6′:4,5]thieno[3,2-f]quinolin-8-one]	101 to 500	< 100	E (mass modification of ≧70%)	–	–
NC(=O)c1cnc(Cl)nc1Nc1ccc2c(ccc3sc4c(c32)NC[C@@H](CO)NC4=O)n1 [I-30, (S)0-2-chloro-4-((10-(hydroxymethyl)-8-oxo-9,10,11,12-tetrahydro-8H-[1,4]diazepino[5′,6′:4,5]thieno[3,2-f]quinolin-3-yl)amino)pyrimidine-5-carboxamide]	< 100	101 to 500	E (mass modification of ≧70%)	–	–
C[C@@H]1CNc2c(sc3ccc4nc(Oc5ccnc(Cl)n5)ccc4c23)C(=O)N1 [I-53, (R)-3-((2-chloropyrimidin-4-yl)oxy)-10-methyl-9,10,11,12-tetrahydro-8H-[1,4]diazepino[5′,6′:4,5]thieno[3,2-f]quinolin-8-one]	< 100	101 to 500	F (mass modification of 31-69%)	–	–
Cc1nc(F)cc(Oc2ccc3c(ccc4sc5c(c43)NC[C@@H](C)NC5=O)n2)n1 [I-65, (R)-3-((6-fluoro-2-methylpyrimidin-4-yl)oxy)-10-methyl-9,10,11,12-tetrahydro-8H-[1,4]diazepino[5′,6′:4,5]thieno[3,2-f]quinolin-8-one]	< 100	101 to 500	E (mass modification of ≧70%)	–	–
C[C@@H]1CNc2c(sc3ccc4nc(N(C)c5cc(F)ncn5)ccc4c23)C(=O)N1 [I-38, (R)-3-((6-fluoropyrimidin-4-yl)(methyl)amino)-10-methyl-9,10,11,12-tetrahydro-8H-[1,4]diazepino[5′,6′:4,5]thieno[3,2-f]quinolin-8-one]	< 100	–	G (mass modification ≦30%)	–	> 1000
C[C@@H]1CNc2c(sc3ccc4nc(Nc5cc(F)nc(CN6CCCCC6)n5)ccc4c23)C(=O)N1 [I-74, (R)-3-((6-fluoro-2-(piperidin-1-ylmethyl)pyrimidin-4-yl)amino)-10-methyl-9,10,11,12-tetrahydro-8H-[1,4]diazepino[5′,6′:4,5]thieno[3,2-f]quinolin-8-one]	< 100	< 100	E (mass modification of ≧70%)	–	–
C[C@@H]1CNc2c(sc3ccc4nc(Nc5nc(Cl)ncc5C(=O)N5CC[C@@H](N(C)C)C5)ccc4c23)C(=O)N1 [I-24, (R)-3-((2-chloro-5-((R)-3-(dimethylamino)pyrrolidine-1-carbonyl)pyrimidin-4-yl)amino)-10-methyl-9,10,11,12-tetrahydro-8H-[1,4]diazepino[5′,6′:4,5]thieno[3,2-f]quinolin-8-one]	501 to 999	> 1000	G (mass modification ≦30%)	–	–
C[C@@H]1CNc2c(sc3ccc4nc(Oc5nc(Cl)nc6c5COC6)ccc4c23)C(=O)N1 [I-86, (R)-3-((2-chloro-5,7-dihydrofuro[3,4-d]pyrimidin-4-yl)oxy)-10-methyl-9,10,11,12-tetrahydro-8H-[1,4]diazepino[5′,6′:4,5]thieno[3,2-f]quinolin-8-one]	< 100	< 100	E (mass modification of ≧70%)	–	–
O=C1N[C@H](CO)CNc2c1sc1ccc3nc(Nc4cc(F)ncn4)ccc3c21 [I-17, (S)-3-((6-fluoropyrimidin-4-yl)amino)-10-(hydroxymethyl)-9,10,11,12-tetrahydro-8H-[1,4]diazepino[5′,6′:4,5]thieno[3,2-f]quinolin-8-one]	< 100	> 1000	F (mass modification of 31-69%)	–	–
